88 molecules from ChEMBL document CHEMBL1157539, “Thousands of chemical starting points for antimalarial lead identification” (Nature, 2010) can be followed below.

The test system of this assay is Plasmodium falciparum. In words: GSK_TCMDC: Inhibition of Plasmodium falciparum 3D7 in whole erythrocytes, using parasite LDH activity as an index of growth. Particulars: Plasmodium falciparum, 3D7. Type of assay: functional, organism-based.

Regarding `COc1cc(OCCCN(C)Cc2ccc(OC)c(OC)c2)ccc1NC(=O)c1cccc2c(O)c3cccc(F)c3nc12`, the XC50 is 891 nM.

As for `CC(C)NC(=N)NN=Cc1ccc(Cl)c(Cl)c1`, the XC50 stood at 534 nM. As to `O=C(Nc1ccc(-c2cncc(NCCCN3CCCC3)c2)cc1)c1ccccc1`, the XC50 is 939 nM. `OC(CNc1ccnc(Nc2ccc(Cl)cc2)n1)c1ccc(C(F)(F)F)cc1` (stereo not drawn) yielded an XC50 of 771 nM. In turn, `Cc1cccc(CN2CCCN(Cc3cccc(C(=O)Nc4ccc(C(C)(C)C)cc4)c3)CC2)c1` had an XC50 of 934 nM. The figure for `N#CCOc1c(C2CCN(CCCCNC(=O)c3ccc(-c4ccc(C(F)(F)F)cc4)cc3)CC2)ccc2c1CCCC2` is 762 nM; for `CC(C)CNCc1cccc(-c2cccc(CN(CCN(C)C)C(=O)Nc3ccccc3)c2)c1` it is 795 nM. With `O=C(N[C@@H](Cc1ccccc1)C(=O)NCCN1CCCCC1)c1ccc(O)c(-c2cccc(C(F)(F)F)c2)c1` the figure was 850 nM. The figure for `CN(c1cc(NC(=O)c2ccccc2)ccn1)C1CCN(Cc2cccc(F)c2)CC1` is 738 nM. With `CO/C(=C\C=C\c1cc2cc(Cl)c(Cl)cc2[nH]1)C(=O)NCC(C)(C)CN(C)C`, the XC50 amounted to 1160 nM. The figure for `CN/C(=N\O)NCCN(C)C` is 1180 nM. Take `CCOc1ccc(-c2nonc2NC(=O)c2ccccc2)cc1OCC`: the XC50 was 257 nM. The figure for `COc1ccc2nccc(NC(=O)C3(O)CCC(NCc4ncc5c(c4Cl)OCCO5)CC3)c2n1` (stereo not drawn) is 254 nM; for `COc1ccc2nc(Nc3nc4cnccc4[nH]3)sc2c1` it is 1130 nM; for `Cc1n[nH]c2ccc(-c3ccc4nccc(N5CCC(N)CC5)c4c3)cc12` it is 591 nM.

For `O=C(O)c1ccc2nc(-c3ccccn3)c(-c3ccccn3)nc2c1`, the XC50 turned out to be 217 nM.

`Cc1ccc2c(=NN=CC=Cc3ccccc3)cc(C)[nH]c2c1` came in with an XC50 of 1120 nM. Take `COc1ccc(OC)c2c1CC1NCC2c2c(OC)ccc(OC)c21` (stereo not drawn): the XC50 was 971 nM. The molecule `O=C(NCCCc1ccccc1)c1csc(C2CCCN(C(=O)c3ccc(O)c(-c4ccccc4)c3)C2)n1` (stereo not drawn) had an XC50 of 913 nM. In turn, `Fc1ccc2[nH]c(-c3ccc(-c4ccc(CN5CCN(CCN6CCOCC6)CC5)cc4)cc3)nc2c1` came in with an XC50 of 183 nM. With `Cc1cccc2nc(-c3ccc(-c4cccc(NC(=O)Cc5c[nH]cn5)c4)cc3)[nH]c12` the figure was 903 nM; with `CC1N=C(N)N=C(N)N1OCc1ccccc1` (stereo not drawn), 32.9 nM. With `O=C(Nc1cccc(-c2csc(-c3ccccc3)n2)c1)c1cccs1` the figure was 800 nM; with `O=C(Nc1cccc(CN2CCN(Cc3cccc(O)c3)CC2)c1)c1ccc(Cl)c(Cl)c1`, 411 nM; with `O=C(/C=C/c1ccc(Cl)c(Cl)c1)NCCCCCCN1CCN(C(=O)Nc2cc(Cl)nc(Cl)c2)CC1`, 784 nM.

Molecule `Cn1ncc2c3c(CCN4CCC(NCc5cc6c(cn5)OCC6)CC4)c(Cl)cnc3ccc21` had an XC50 of 881 nM. Take `COc1ccc2c(NN=Cc3cccc(C)n3)ccnc2c1`: the XC50 was 761 nM.

The molecule `O=C(Nc1cccc(CN2CCN(C(=O)c3cccc(Cl)c3)CC2)c1)c1ccco1` gave an XC50 of 438 nM. With `O=C(NCc1ccccc1)C1Cc2c([nH]c3ccc(Br)cc23)C2(CCN(Cc3ccccc3)CC2)N1` (stereo not drawn) the figure was 873 nM; with `Cc1nc(-c2ccc(C#N)cc2)sc1C(=O)NCCCCN1CCC(c2ccc3c(c2OCCO)CCCC3)CC1`, 850 nM; with `O=c1cc(NCCCNC2CCOc3c(Cl)cc(Cl)cc32)[nH]c2ccccc12` (stereo not drawn), 724 nM. With `COc1cc2c(Nc3ccc(Br)cc3F)ncnc2cc1OCC1CCN(C)CC1` the figure was 770 nM; with `CN(C)CCOc1cc(NC(=O)Nc2ccc(-c3ccccc3)cc2Cl)ccc1I`, 245 nM. With `Cn1cncc1-c1cc2c(Nc3ccc(OCc4ccccc4)cc3)ncnc2cn1` the figure was 268 nM; with `O=C(Nc1cccc(C(F)(F)F)c1)NC1CCN(c2ccnc3ccccc23)C1` (stereo not drawn), 289 nM. On to `CN1CCCC1CCNCc1cccc(-c2cnc(N3CCCC(C)(C)C3)nc2)c1` (stereo not drawn), for which the XC50 turned out to be 927 nM.

Take `O=C(CCC1CCCCC1)NCCNc1cccc2ccccc12`: the XC50 is 831 nM. With `CC(=O)Nc1cccc(C(=O)Nc2ccc(-c3ccc(-c4nc5cccc(C)c5[nH]4)s3)cc2)c1` the figure was 1740 nM; with `CC(=O)N(C)c1cccc(C(=O)Nc2ccc(-c3cccc(-c4nc5cccc(C)c5[nH]4)c3)cc2)c1`, 651 nM. With `OC1(c2ccccc2)CCN(Cc2cccc(-c3c[nH]c4nc(NC5CCCC5)ncc34)c2)C1` (stereo not drawn) the figure was 914 nM. The molecule `O=C1c2ccccc2-n2c1nc1ccccc1c2=O` [TRYPTANTHRIN] gave an XC50 of 856 nM. The figure for `Clc1cccc(C=NNc2nc(=Nc3ccccc3)[nH]c(=Nc3ccccc3)[nH]2)c1` is 844 nM; for `Cc1[nH]c2ccccc2c(=O)c1Br` it is 843 nM; for `COc1cccc(OCC2CCCN(CCCCNC(=O)c3ccc(NC(=O)c4ccc(Cl)cc4)cc3)C2)c1` (stereo not drawn) it is 748 nM. With `COc1ccc2ncc(Cl)c(N3CCC(CCNCc4ccc5c(n4)NC(=O)CS5)CC3)c2c1` the figure was 961 nM. As to `Cc1cc(Cc2ccc(S(=O)(=O)c3cc4c(cc3O)CCN(C)CC4)cc2)ccc1Cl`, the XC50 is 911 nM.

The molecule `CNC(=O)Cc1ccc(C(=O)Nc2cccc(-c3cccc(-c4nc5cccc(C)c5[nH]4)c3)c2)cc1` came in with an XC50 of 530 nM.

Consider `COc1cc(OC)c2c(C)cc(NCCCN3CCOCC3)nc2c1`, for which the XC50 amounted to 1070 nM.

Consider `Clc1cccc(C23N/C(=N\c4nc5ccccc5[nH]4)NC2(c2ccccc2)N/C(=N\c2nc4ccccc4[nH]2)N3)c1` (stereo not drawn), for which the XC50 amounted to 519 nM. `O=C(COc1cccc([N+](=O)[O-])c1)Nc1ccc(-c2nc3ccccc3[nH]2)cc1` displayed an XC50 of 754 nM. The figure for `COc1ccc(OCCCCON2C(=N)N=C(N)NC2(C)C)cc1` is 3.2 nM; for `CC(=O)Nc1nc(C(=O)Nc2cccc(-c3cccc(-c4nc5cc(F)ccc5[nH]4)c3)c2)cs1` it is 89.2 nM. With `CC(C)(CNC(=O)[C@@H]1CCCN(CCOc2ccc(Cl)cc2)C1)c1nc(-c2ccc(Cl)c(O)c2)c(-c2ccncc2)[nH]1` the figure was 881 nM. With `CC1CC(NCCCNc2cc(=O)c3ccccc3[nH]2)c2c(Cl)c(Cl)cc(Cl)c21` (stereo not drawn) the figure was 981 nM; with `COc1ccc2nccc([C@@H](O)CN3CCC(NCc4ccc5c(c4)NC(=O)C(C)S5)CC3)c2c1` (stereo partly drawn), 200 nM; with `[O-][s+]1nc(NCCCN(Cc2cccs2)c2ccccn2)c(NCc2ccccc2)n1` (stereo not drawn), 305 nM. In turn, `CCOc1ccc2[nH]c(C)cc(=NN=Cc3cccc(C)n3)c2c1` returned an XC50 of 754 nM. With `Cc1[nH]cnc1CSCCN/C(=N\C#N)NCCCCCCCCN/C(=N/C#N)NCCSCc1nc[nH]c1C`, the XC50 stood at 1270 nM. With `Clc1ccc(OCCC2CCN(CCCCCCN3CCCCC3)CC2)cc1Cl` the figure was 1140 nM; with `COc1cc(Cc2cnc(N)nc2N)cc(OC)c1OCCNC(=O)[C@@H](N)CCC(=O)O`, 843 nM; with `COc1ccccc1-c1ccc(C(=O)NCC2CCCN(Cc3cccc(C(F)(F)F)c3)C2)s1` (stereo not drawn), 1540 nM. The figure for `CCc1nc(N)nc(N)c1-c1ccc2c(c1)CCCC2` is 196 nM. In turn, `COc1cccc(NC(=O)c2cc([N+](=O)[O-])ccc2NC(=O)CN2CCc3ccccc3C2)c1` registered an XC50 of 589 nM. The figure for `CCCCCCc1cc2cc(-c3nc(-c4ccc(OC)cc4)cs3)c(=O)oc2cc1O` is 816 nM; for `NC1=NC(c2ccccc2)N(OCc2ccccc2)C(N)=N1` (stereo not drawn) it is 43.1 nM; for `O=C(NC1CCCCN(Cc2ccc3c(c2)OCCO3)C1)c1cc(-c2ccccc2F)cs1` (stereo not drawn) it is 1050 nM. The molecule `NC(=O)c1cnc2cc(-c3ccoc3)ccc2c1Nc1ccc(NC(=O)Nc2ccccc2Cl)cc1` had an XC50 of 538 nM.

For `COc1cc(Nc2ccnc3cc(-c4nccs4)ccc23)ccc1OCCCc1nc2ccccc2[nH]1`, the XC50 turned out to be 237 nM. The figure for `CCCCCCCCc1c(C)nc(C)c(C#N)c1O` is 402 nM; for `O=C(NCCCCN1CCC(c2ccc3c(c2O)CCCC3)CC1)c1ccc(-c2ccc(Cl)cc2)cc1` it is 754 nM. For the molecule `CC(C)(C)c1nn(-c2ccccc2)c2[nH]c(=O)c(CNCc3ccccc3)cc12`, the XC50 turned out to be 1050 nM. With `Cc1cc(NC(=O)c2ccc(S(=O)(=O)N(Cc3ccccc3)C(C)C)cc2)no1` the figure was 847 nM; with `O=C(/C=C/c1ccc(Cl)c(Cl)c1)NCCCCCN1CCCC(CNC(=O)Nc2ccc(Oc3ccccc3)cc2)C1` (stereo not drawn), 783 nM; with `O=C(/C=C/c1ccc(Cl)c(Cl)c1)N1CCC(CN2CCC(c3c(-c4ccc(F)cc4)[nH]c4ccccc34)CC2)CC1`, 175 nM. `COc1cc(Cc2cnc(N)nc2N)cc(OCCCN2C(=O)c3ccccc3C2=O)c1OC` showed an XC50 of 985 nM. With `Cc1ccc(C(=O)Cn2nc(-c3ccc(C)c(S(=O)(=O)N4CCCC4)c3)ccc2=O)cc1` the figure was 513 nM; with `c1ccc(CN2CCC(NCc3ccccc3-c3cccc(CNC4CCCC4)c3)CC2)cc1`, 718 nM; with `N#Cc1ccc(CN2CCCN(Cc3cccc(NC(=O)c4ccc(Cl)c(Cl)c4)c3)CC2)cc1`, 850 nM.

`CCCN(CCCCNC(=O)c1ccc(-c2cccnc2)cc1)C1CCc2c(O)cccc2C1` (stereo not drawn) gave an XC50 of 1120 nM. With `Oc1ccc(-c2cc(-c3ccc(O)cc3)nc(-c3ccccc3)n2)cc1`, the XC50 turned out to be 783 nM. Regarding `COc1cccc(CNC[C@@H](O)[C@H](Cc2ccccc2)NC(=O)c2cc(C(C)C)cc(N3CCCC3=O)c2)c1`, the XC50 amounted to 953 nM.

In turn, `CN1CCC(N2CCN(Cc3cccc(-c4ccc(-c5nc6ccccc6[nH]5)cc4)c3)CC2)CC1` displayed an XC50 of 156 nM.

On to `Cc1noc(C)c1-c1cccc(CNCc2cccc(-c3ccc(-c4nc5cccc(C)c5[nH]4)cc3)c2)c1`, for which the XC50 worked out at 191 nM.

`O=C(Nc1ccc(C(=O)Nc2ccc(C3=NCCN3)cc2)cc1)Nc1ccc(C2=NCCN2)cc1` gave an XC50 of 180 nM.

`O=C(Nc1cccc(CN2CCN(C(=O)c3cccs3)CC2)c1)c1cccs1` had an XC50 of 782 nM. Molecule `COc1cc(CNCCCCCCNCc2cc(OC)c3ccccc3c2OC)c(OC)c2ccccc12` came in with an XC50 of 700 nM. Consider `CCOC(=O)C1=C(C)NC(Cn2ccnc2)=C(C(=O)OCC)C1c1ccc(C(C)(C)C)cc1` (stereo not drawn), for which the XC50 stood at 807 nM. For `Cc1cc(F)ccc1-c1nc(Nc2ccncc2)c2ccn(C)c2n1`, the XC50 is 940 nM.
